Source: patent US9221827B2, “Antimicrobial compounds and methods of making and using the same” (Melinta Therapeutics, Inc., priority 2011, dated 2015)

Each compound was assayed on Escherichia coli strain ATCC25922 (assay: standard microdilution assay to determine minimum inhibitory concentrations (MICs)). Conditions: Escherichia coli strain ATCC25922, standard microdilution assay.
Type: cell-based
Procedure, shortened: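 Broth microdilution per CLSI (M7-A8/M100-S20), 100 μl final volume, with reference-strain quality control; MIC is the lowest inhibitory concentration. Scored "+"/"−" against a 16 micrograms/ml cutoff, "N/A" where unavailable.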

Compound | E. coli ATCC25922 MIC
C[C@H](N)c1ccc(-n2cc3cc(-c4cc(CCCC(C)(C)N)cc(Cl)c4F)[nH]c3nc2=O)cc1 [Compound 373] | − (a “−” indicates that the compound has an MIC value greater than 16 micrograms/ml)
CCC(N)CCCc1cc(Cl)c(F)c(-c2cc3cn(-c4ccc(C(C)NCCCNC(=N)N)cc4)c(=O)nc3[nH]2)c1 (stereo not drawn) [Compound 374] | + (a “+” indicates that the compound has an MIC value of 16 micrograms/ml or less)
CC(N)COCc1cc(Cl)c(F)c(-c2cc3cn(-c4ccc(CNCCCNC(=N)N)cc4)c(=O)nc3[nH]2)c1 (stereo not drawn) [Compound 375] | + (a “+” indicates that the compound has an MIC value of 16 micrograms/ml or less)
CC(N)COCc1cc(Cl)c(F)c(-c2cc3cn(-c4ccc(C(C)NCCCNC(=N)N)cc4)c(=O)nc3[nH]2)c1 (stereo not drawn) [Compound 376] | + (a “+” indicates that the compound has an MIC value of 16 micrograms/ml or less)
C[C@H](NCCCNC(=N)N)c1ccc(-n2cc3cc(-c4cc(CSC(C)(C)CN)cc(SC(F)(F)F)c4)[nH]c3nc2=O)cc1 [Compound 377] | + (a “+” indicates that the compound has an MIC value of 16 micrograms/ml or less)
CN(CCCNC(=N)N)Cc1ccc(-n2cc3cc(-c4cc(CCCCN)cc(Cl)c4F)[nH]c3nc2=O)cc1 [Compound 378] | + (a “+” indicates that the compound has an MIC value of 16 micrograms/ml or less)
CC(N)CCCc1cc(Cl)c(F)c(-c2cc3cn(-c4ccc(CN(C)CCCNC(=N)N)cc4)c(=O)nc3[nH]2)c1 (stereo not drawn) [Compound 379] | + (a “+” indicates that the compound has an MIC value of 16 micrograms/ml or less)
CCC(N)CCCc1cc(SC(F)(F)F)cc(-c2cc3cn(-c4ccc(CNCCCNC(=N)N)cc4)c(=O)nc3[nH]2)c1 (stereo not drawn) [Compound 380] | + (a “+” indicates that the compound has an MIC value of 16 micrograms/ml or less)
CCC(N)CCCc1cc(SC(F)(F)F)cc(-c2cc3cn(-c4ccc(C(C)NCCCNC(=N)N)cc4)c(=O)nc3[nH]2)c1 (stereo not drawn) [Compound 381] | + (a “+” indicates that the compound has an MIC value of 16 micrograms/ml or less)
CN=C(N)NCCCNCc1ccc(-n2cc3cc(-c4cc(CCCC(C)N)cc(Cl)c4F)[nH]c3nc2=O)cc1 (stereo not drawn) [Compound 382] | + (a “+” indicates that the compound has an MIC value of 16 micrograms/ml or less)
CC(N)CCCc1cc(Cl)c(F)c(-c2cc3cn(-c4ccc(C(C)NCCCNC(N)=NC5CNC5)cc4)c(=O)nc3[nH]2)c1 (stereo not drawn) [Compound 383] | + (a “+” indicates that the compound has an MIC value of 16 micrograms/ml or less)
CC(NCCCNC(=N)N)c1ccc(-n2cc3cc(-c4cc(CCC5CC(N)C5)cc(Cl)c4F)[nH]c3nc2=O)cc1 (stereo not drawn) [Compound 384] | + (a “+” indicates that the compound has an MIC value of 16 micrograms/ml or less)
CC(C)Cc1cc(CCCC(C)N)cc(-c2cc3cn(-c4ccc(C(C)NCCCNC(=N)N)cc4)c(=O)nc3[nH]2)c1 (stereo not drawn) [Compound 385] | + (a “+” indicates that the compound has an MIC value of 16 micrograms/ml or less)
CC(=O)NCCCNCc1ccc(-n2cc3cc(-c4cc(CCC[C@H](C)N)cc(Cl)c4F)[nH]c3nc2=O)cc1 [Compound 386] | − (a “−” indicates that the compound has an MIC value greater than 16 micrograms/ml)
CCc1cc(CCC[C@H](C)N)nc(-c2cc3cn(-c4ccc(CNCCCNC(=N)N)cc4)c(=O)nc3[nH]2)c1 [Compound 387] | + (a “+” indicates that the compound has an MIC value of 16 micrograms/ml or less)
CCc1cc(CCC[C@H](C)N)nc(-c2cc3cn(-c4ccc([C@H](C)NCCCNC(=N)N)cc4)c(=O)nc3[nH]2)c1 [Compound 388] | + (a “+” indicates that the compound has an MIC value of 16 micrograms/ml or less)
C[C@H](N)CCCc1cc(C(F)(F)F)cc(-c2cc3cn(-c4ccc(CNCCCNC(=N)N)cc4)c(=O)nc3[nH]2)n1 [Compound 389] | + (a “+” indicates that the compound has an MIC value of 16 micrograms/ml or less)
CC(NCCCNC(=N)N)c1ccc(-n2cc3cc(-c4cc(CCCC(N)CO)cc(Cl)c4F)[nH]c3nc2=O)cc1 (stereo not drawn) [Compound 391] | + (a “+” indicates that the compound has an MIC value of 16 micrograms/ml or less)
CC[C@H](NCCCNC(=N)N)c1ccc(-n2cc3cc(-c4cc(CCC[C@H](C)N)cc(Cl)c4F)[nH]c3nc2=O)cc1 [Compound 392] | + (a “+” indicates that the compound has an MIC value of 16 micrograms/ml or less)
C[C@H](N)CCCc1cc(-c2cc3cn(-c4ccc([C@H](C)NCCCNC(=N)N)cc4)c(=O)nc3[nH]2)cc2c1CCC2 [Compound 393] | + (a “+” indicates that the compound has an MIC value of 16 micrograms/ml or less)
C[C@H](N)CCCc1cc(Cl)c(F)c(-c2cc3cn(-c4ccc(CNCCCN/C(N)=N\[N+](=O)[O-])cc4)c(=O)nc3[nH]2)c1 [Compound 394] | + (a “+” indicates that the compound has an MIC value of 16 micrograms/ml or less)

Compound | E. coli ATCC25922 MIC
C[C@H](NCCCNC(=N)N)c1ccc(-n2cc3cc(-c4cc(C[C@H]5C[C@@H](N)C5)cc(C(F)(F)F)c4)[nH]c3nc2=O)cc1 [Compound 395] | + (a “+” indicates that the compound has an MIC value of 16 micrograms/ml or less)
C[C@H](NCCCNC(=N)N)c1ccc(-n2cc3cc(-c4cc(C[C@H]5C[C@H](N)C5)cc(C(F)(F)F)c4)[nH]c3nc2=O)cc1 [Compound 396] | + (a “+” indicates that the compound has an MIC value of 16 micrograms/ml or less)
C[C@@H](N)CCc1cc(SC(F)(F)F)cc(-c2cc3cn(-c4ccc(CNCCCNC(=N)N)cc4)c(=O)nc3[nH]2)c1 [Compound 397] | + (a “+” indicates that the compound has an MIC value of 16 micrograms/ml or less)
C[C@H](NCCCNC(=N)N)c1ccc(-n2cc3cc(-c4cc(CC[C@@H](C)N)cc(SC(F)(F)F)c4)[nH]c3nc2=O)cc1 [Compound 398] | + (a “+” indicates that the compound has an MIC value of 16 micrograms/ml or less)
CC[C@H](NCCCNC(=N)N)c1ccc(-n2cc3cc(-c4cc(CCC[C@H](C)N)cc(C(F)(F)F)c4)[nH]c3nc2=O)cc1 [Compound 400] | + (a “+” indicates that the compound has an MIC value of 16 micrograms/ml or less)
C[C@H](NCCCNC(=N)N)c1ccc(-n2cc3cc(-c4cc(C[C@H]5C[C@@H](CN)C5)cc(SC(F)(F)F)c4)[nH]c3nc2=O)cc1 [Compound 402] | + (a “+” indicates that the compound has an MIC value of 16 micrograms/ml or less)
C[C@H](NCCCNC(=N)N)c1ccc(-n2cc3cc(-c4cc(C[C@H]5C[C@H](CN)C5)cc(SC(F)(F)F)c4)[nH]c3nc2=O)cc1 [Compound 403] | + (a “+” indicates that the compound has an MIC value of 16 micrograms/ml or less)
C[C@H](N)CCCc1cc(OC(F)(F)F)cc(-c2cc3cn(-c4ccc([C@@H](C)N)cc4)c(=O)nc3[nH]2)c1 [Compound 405] | − (a “−” indicates that the compound has an MIC value greater than 16 micrograms/ml)
C[C@H](N)CCCc1cc(Cl)c(F)c(-c2cc3cn(-c4ccc([C@@H](C)N)cc4)c(=O)nc3[nH]2)c1 [Compound 406] | − (a “−” indicates that the compound has an MIC value greater than 16 micrograms/ml)
CC[C@H](NCCCNC(=N)N)c1ccc(-n2cc3cc(-c4cc(CCC[C@H](C)N)cc(SC(F)(F)F)c4)[nH]c3nc2=O)cc1 [Compound 407] | + (a “+” indicates that the compound has an MIC value of 16 micrograms/ml or less)
CC(C)c1cc(CCC[C@H](C)N)cc(-c2cc3cn(-c4ccc(CNCCCNC(=N)N)cc4)c(=O)nc3[nH]2)c1F [Compound 408] | + (a “+” indicates that the compound has an MIC value of 16 micrograms/ml or less)
C[C@H](N)CCCc1cc(SC(F)(F)F)c(Cl)c(-c2cc3cn(-c4ccc([C@@H](C)N)cc4)c(=O)nc3[nH]2)c1 [Compound 409] | − (a “−” indicates that the compound has an MIC value greater than 16 micrograms/ml)
C[C@H](NCCCNC(=N)N)c1ccc(-n2cc3cc(-c4cc(CC[C@@H](C)N)cc(C(F)(F)F)c4)[nH]c3nc2=O)cc1 [Compound 410] | + (a “+” indicates that the compound has an MIC value of 16 micrograms/ml or less)
C[C@H](NCCCNC(=N)N)c1ccc(-n2cc3cc(-c4cc(CC[C@@H](C)N)cc(Cl)c4F)[nH]c3nc2=O)cc1 [Compound 411] | + (a “+” indicates that the compound has an MIC value of 16 micrograms/ml or less)
CCC[C@H](NCCCNC(=N)N)c1ccc(-n2cc3cc(-c4cc(CCC[C@H](C)N)cc(Cl)c4F)[nH]c3nc2=O)cc1 [Compound 415] | + (a “+” indicates that the compound has an MIC value of 16 micrograms/ml or less)
CCC[C@H](NCCCNC(=N)N)c1ccc(-n2cc3cc(-c4cc(CCC[C@H](C)N)cc(SC(F)(F)F)c4)[nH]c3nc2=O)cc1 [Compound 416] | + (a “+” indicates that the compound has an MIC value of 16 micrograms/ml or less)
C[C@H](N)CCCc1cc(-c2cc3cn(-c4ccc([C@H](C)NCCCNC(=N)N)cc4)c(=O)nc3[nH]2)cc2c1CCCC2 [Compound 417] | + (a “+” indicates that the compound has an MIC value of 16 micrograms/ml or less)
CC(N)C(C)OCc1cc(OC(F)(F)F)cc(-c2cc3cn(-c4ccc(CNCCCNC(=N)N)cc4)c(=O)nc3[nH]2)c1 (stereo not drawn) [Compound 418] | + (a “+” indicates that the compound has an MIC value of 16 micrograms/ml or less)
CC(NCCCNC(=N)N)c1ccc(-n2cc3cc(-c4cc(COC(C)C(C)N)cc(OC(F)(F)F)c4)[nH]c3nc2=O)cc1 (stereo not drawn) [Compound 419] | + (a “+” indicates that the compound has an MIC value of 16 micrograms/ml or less)
COC[C@H](N)CCCc1cc(SC(F)(F)F)cc(-c2cc3cn(-c4ccc(CNCCCNC(=N)N)cc4)c(=O)nc3[nH]2)c1 [Compound 424] | + (a “+” indicates that the compound has an MIC value of 16 micrograms/ml or less)

Same assay, conditions: Escherichia coli strain ATCC25922, standard microdilution assay; read-out: E. coli ATCC25922 MIC

Compound | MIC
C[C@H](N)CCCc1cc(C(F)(F)F)cc(-c2cc3cn(-c4ccc([C@H](C)NCCCNC(=N)N)cc4)c(=O)nc3[nH]2)n1 [Compound 390] | ≤ 16 µg/mL
